MIC data for six molecules are collected here from patent US20080064667A1, “OXAZOLE DERIVATIVES OF TETRACYCLINES” (Wyeth, priority 2003, published 2008).

Structures are written as SMILES. Converted amounts (≈) assume the structure as drawn. Some results are limits rather than exact numbers.

What all share (experiment): MIC, broth microdilution (NCCLS)
Common to all, as to format: cell-based
Background: In broth dilution the organism is exposed to a series of concentrations in liquid medium.

Experiment [1] relates to C. albicans GC3066 ATCC (Control). To be noted: Candida albicans, Mueller-Hinton II broth, 18-22 hours at 35° C. The protocol:
(§1) Methods for in Vitro Antibacterial Evaluation
(§2) The Minimum Inhibitory Concentration (MIC)
(§3) Antimicrobial susceptibility testing. The in vitro activities of the antibiotics are determined by the broth microdilution method as recommended by the National Committee for Clinical Laboratory Standards (NCCLS) (1). Mueller-Hinton II broth (MHBII)(BBL Cockeysville, Md.) is the medium employed in the testing procedures. Microtiter plates containing serial dilutions of each antimicrobial agent are inoculated with each organism to yield the appropriate density (10^5 CFU/ml) in a 100 μl final volume. The plates are incubated for 18-22 hours at 35° C. in ambient air.
(§4) 1. NCCLS. 2000. Methods for Dilution Antimicrobial Susceptibility Tests for Bacteria That Grow Aerobically; Approved Standards: M7-A5, vol. 20. National Committe for Clinical Laboratory Standards, Wayne, Pa.

For experiment [2], the system named is S. pyogenes* GC4563 (Clinical). To be noted: Streptococcus pyogenes, Mueller-Hinton II broth, 18-22 hours at 35° C. How it is done: as §1, §2, §3, §4
Experiment [3] concerns S. aureus GC1079 (tet(K)). To be noted: Staphylococcus aureus, Mueller-Hinton II broth, 18-22 hours at 35° C. How it is done: as §1, §2, §3, §4
Experiment [4] concerns E. coli GC1073 (tet(B)). Particulars: Escherichia coli. How it is done:
as §1, §2, §3, §4

The subject of experiment [5] is S. pneumoniae* GC1894 (Clinical). To be noted: Streptococcus pneumoniae, Mueller-Hinton II broth, 18-22 hours at 35° C. How it is done: as §1, §2, §3, §4
In experiment [6] the test system is H. influenzae<> GC6896 (ATCC Control). Particulars: Haemophilus influenzae, Mueller-Hinton II broth, 18-22 hours at 35° C. The protocol:
as §1, §2, §3, §4

Experiment [7] has as its system S. aureus GC1131 (Clinical). Particulars: Staphylococcus aureus, Mueller-Hinton II broth, 18-22 hours at 35° C. The protocol: as §1, §2, §3, §4
In experiment [8] the test system is E. faecalis GC2242 (Van-resistant). To be noted: Enterococcus faecalis, Mueller-Hinton II broth, 18-22 hours at 35° C. How it is done: as §1, §2, §3, §4
For experiment [9], the system named is S. aureus GC2216 (ATCC Control). Particulars: Staphylococcus aureus, Mueller-Hinton II broth, 18-22 hours at 35° C. The protocol: as §1, §2, §3, §4
Experiment [10] has as its system E. coli GC2270 (tet(M)). To be noted: Escherichia coli. How it is done: as §1, §2, §3, §4
The subject of experiment [11] is S. aureus GC6466 (tet(M)). Particulars: Staphylococcus aureus, Mueller-Hinton II broth, 18-22 hours at 35° C. The protocol: as §1, §2, §3, §4
Experiment [12] has as its system M. catarrhalis* GC6907 (Clinical). To be noted: Moraxella catarrhalis, Mueller-Hinton II broth, 18-22 hours at 35° C. How it is done:
as §1, §2, §3, §4

For experiment [13], the system named is S. pneumoniae* GC4465 (Clinical). To be noted: Streptococcus pneumoniae, Mueller-Hinton II broth, 18-22 hours at 35° C. How it is done: as §1, §2, §3, §4
In experiment [14] the test system is E. coli GC2203 (ATCC Control). To be noted: Escherichia coli, Mueller-Hinton II broth, 18-22 hours at 35° C. The protocol: as §1, §2, §3, §4
Experiment [15] relates to E. coli GC4560 (IMP mutant). To be noted: Escherichia coli. How it is done:
as §1, §2, §3, §4

Experiment [16] has as its system E. coli GC4559 (parent GC4560). Particulars: Escherichia coli, Mueller-Hinton II broth, 18-22 hours at 35° C. The protocol:
as §1, §2, §3, §4

Experiment [17] relates to S. aureus GC4536 (Smith MP -In Vivo). Particulars: Staphylococcus aureus, Mueller-Hinton II broth, 18-22 hours at 35° C. How it is done:
as §1, §2, §3, §4

The test system of experiment [18] is E. faecalis GC4555 (ATCC Control). To be noted: Enterococcus faecalis, Mueller-Hinton II broth, 18-22 hours at 35° C. The protocol: as §1, §2, §3, §4

Turning to `CN(C)c1cc2nc(-c3ccc(O)cc3O)oc2c2c1C[C@H]1C[C@H]3[C@H](N(C)C)C(O)=C(C(N)=O)C(=O)[C@@]3(O)C(O)=C1C2=O` [Example 12, (6aR,7aS,8S,11aS)-2-(2,4-dihydroxyphenyl)-5,8-bis(dimethylamino)-9,11a,12-trihydroxy-11,13-dioxo-6,6a,7,7a,8,11,11a,13-octahydrotetraceno[2,1-d][1,3]oxazole-10-carboxamide], the MIC in [1] is greater than 64 µg/mL; in experiment [2] it was 4 µg/mL (≈ 6.77 µM); in [3], 8 µg/mL (≈ 13.5 µM); in experiment [4] it was greater than 64 µg/mL; in experiment [5], 8 µg/mL (≈ 13.5 µM); in [6] it was 16 µg/mL (≈ 27.1 µM). For the same molecule, the MIC was 4 µg/mL (≈ 6.77 µM) in [7]; 8 µg/mL (≈ 13.5 µM) in [8]; 4 µg/mL (≈ 6.77 µM) in [9]; greater than 64 µg/mL in experiment [10]; 8 µg/mL (≈ 13.5 µM) in experiment [11]; 4 µg/mL (≈ 6.77 µM) in experiment [12]. Besides, the MIC in experiment [13] is 8 µg/mL (≈ 13.5 µM); in experiment [14] it was 32 µg/mL (≈ 54.2 µM); in experiment [15] it was 4 µg/mL (≈ 6.77 µM); in experiment [16] it was greater than 64 µg/mL; in experiment [17] it was 8 µg/mL (≈ 13.5 µM); in experiment [18] it was 8 µg/mL (≈ 13.5 µM).

Turning to `CC(C)=Cc1nc2ccc3cc4c(c(O)c3c2o1)C(=O)[C@]1(O)C(=O)C(C(N)=O)=C(O)[C@@H](N(C)C)[C@@H]1C4` [Example 2, (7aS,8S,11aS)-8-(dimethylamino)-9,11a,13-trihydroxy-2-(2-methyl-1-propenyl)-11,12-dioxo-7,7a,8,11,11a,12-hexahydronaphthaceno[2,1-d][1,3]oxazole-10-carboxamide], the MIC is greater than 64 µg/mL in [1]; 8 µg/mL (≈ 16.3 µM) in [2]; 8 µg/mL (≈ 16.3 µM) in experiment [3]; greater than 64 µg/mL in experiment [4]; 8 µg/mL (≈ 16.3 µM) in [7]; 8 µg/mL (≈ 16.3 µM) in experiment [8]. In addition, the MIC is 8 µg/mL (≈ 16.3 µM) in experiment [9]; greater than 64 µg/mL in experiment [10]; 8 µg/mL (≈ 16.3 µM) in [11]; 8 µg/mL (≈ 16.3 µM) in experiment [13]; greater than 64 µg/mL in experiment [14]; 8 µg/mL (≈ 16.3 µM) in experiment [15]. The MIC in [16] was greater than 64 µg/mL; in experiment [17], 8 µg/mL (≈ 16.3 µM); in experiment [18], 8 µg/mL (≈ 16.3 µM).

Consider `CN(C)c1cc2nc(/C=C/c3ccccc3)oc2c2c1C[C@H]1C[C@H]3[C@H](N(C)C)C(O)=C(C(N)=O)C(=O)[C@@]3(O)C(O)=C1C2=O` [Example 25, (6aR,7aS,8S,11aS)-5,8-bis(dimethylamino)-9,1a,12-trihydroxy-11,13-dioxo-2-[(E)-2-phenylethenyl]-6,6a,7,7a,8,11,11a,13-octahydrotetraceno[2,1-d][1,3]oxazole-10-carboxamide], for which the MIC in experiment [1] was greater than 64 µg/mL; in [2] it was 16 µg/mL (≈ 27.4 µM); in experiment [3], 4 µg/mL (≈ 6.84 µM); in [4], greater than 64 µg/mL; in [5] it was 32 µg/mL (≈ 54.7 µM); in experiment [6] it was greater than 64 µg/mL. Besides, the MIC was 8 µg/mL (≈ 13.7 µM) in experiment [7]; 4 µg/mL (≈ 6.84 µM) in [8]; 4 µg/mL (≈ 6.84 µM) in experiment [9]; greater than 64 µg/mL in [10]; 4 µg/mL (≈ 6.84 µM) in experiment [11]; 16 µg/mL (≈ 27.4 µM) in [12]. The MIC was 32 µg/mL (≈ 54.7 µM) in experiment [13]; greater than 64 µg/mL in [14]; 8 µg/mL (≈ 13.7 µM) in experiment [15]; greater than 64 µg/mL in [16]; 8 µg/mL (≈ 13.7 µM) in [17]; 8 µg/mL (≈ 13.7 µM) in experiment [18].

For `CCOc1cc(OCC)c(-c2nc3cc(N(C)C)c4c(c3o2)C(=O)C2=C(O)[C@]3(O)C(=O)C(C(N)=O)=C(O)[C@@H](N(C)C)[C@@H]3C[C@@H]2C4)cc1OCC` [Example 16, (6aR,7aS,8S,11aS)-5,8-bis(dimethylamino)-9,11a,12-trihydroxy-11,13-dioxo-2-(2,4,5-triethoxyphenyl)-6,6a,7,7a,8,11,11a,13-octahydrotetraceno[2,1-d][1,3]oxazole-10-carboxamide], the MIC in experiment [1] was greater than 64 µg/mL; in experiment [2], 64 µg/mL (≈ 92.7 µM); in experiment [3] it was 16 µg/mL (≈ 23.2 µM); in experiment [4] it was greater than 64 µg/mL; in experiment [5], greater than 64 µg/mL; in [6] it was greater than 64 µg/mL. For the same molecule, the MIC is 16 µg/mL (≈ 23.2 µM) in experiment [7]; 16 µg/mL (≈ 23.2 µM) in experiment [8]; 16 µg/mL (≈ 23.2 µM) in [9]; greater than 64 µg/mL in experiment [10]; 16 µg/mL (≈ 23.2 µM) in [11]; greater than 64 µg/mL in experiment [12]. Besides, the MIC in [13] was greater than 64 µg/mL; in [14], greater than 64 µg/mL; in experiment [15], 16 µg/mL (≈ 23.2 µM); in experiment [16], greater than 64 µg/mL; in experiment [17], 16 µg/mL (≈ 23.2 µM); in experiment [18], 16 µg/mL (≈ 23.2 µM).

Regarding `CN(C)c1cc2nc(-c3cc(C(C)(C)C)ccc3O)oc2c2c1C[C@H]1C[C@H]3[C@H](N(C)C)C(O)=C(C(N)=O)C(=O)[C@@]3(O)C(O)=C1C2=O` [Example 10, (6aR,7aS,8S,11aS)-2-(5-tert-butyl-2-hydroxyphenyl)-5,8-bis(dimethylamino)-9,11a,12-trihydroxy-11,13-dioxo-6,6a,7,7a,8,11,11a,13-octahydrotetraceno[2,1-d][1,3]oxazole-10-carboxamide], the MIC in experiment [1] is greater than 64 µg/mL; in experiment [2] it was 16 µg/mL (≈ 25.4 µM); in experiment [3], 16 µg/mL (≈ 25.4 µM); in experiment [4], greater than 64 µg/mL; in experiment [5], 8 µg/mL (≈ 12.7 µM); in experiment [6] it was greater than 64 µg/mL. The MIC in experiment [7] is 8 µg/mL (≈ 12.7 µM); in experiment [8], 8 µg/mL (≈ 12.7 µM); in [9] it was 16 µg/mL (≈ 25.4 µM); in [10] it was greater than 64 µg/mL; in experiment [11], 16 µg/mL (≈ 25.4 µM); in [12] it was greater than 64 µg/mL. Also, the MIC is 16 µg/mL (≈ 25.4 µM) in experiment [13]; greater than 64 µg/mL in experiment [14]; 32 µg/mL (≈ 50.7 µM) in experiment [15]; greater than 64 µg/mL in experiment [16]; 16 µg/mL (≈ 25.4 µM) in experiment [17]; 16 µg/mL (≈ 25.4 µM) in experiment [18].

For the molecule `CN(C)c1ccc(-c2nc3ccc4cc5c(c(O)c4c3o2)C(=O)[C@]2(O)C(=O)C(C(N)=O)=C(O)[C@@H](N(C)C)[C@@H]2C5)cc1` [Example 3, (7aS,8S,11aS)-8-(dimethylamino)-2-[4-(dimethylamino)phenyl]-9,11a,13-trihydroxy-11,12-dioxo-7,7a,8,11,11a,12-hexahydronaphthaceno[2,1-d][1,3]oxazole-10-carboxamide], the MIC in experiment [1] was greater than 64 µg/mL; in [2], 8 µg/mL (≈ 14.4 µM); in [3], 1 µg/mL (≈ 1.8 µM); in [4], greater than 64 µg/mL; in experiment [7], 2 µg/mL (≈ 3.59 µM); in [8] it was 2 µg/mL (≈ 3.59 µM). The MIC was 2 µg/mL (≈ 3.59 µM) in experiment [9]; greater than 64 µg/mL in experiment [10]; 2 µg/mL (≈ 3.59 µM) in experiment [11]; 2 µg/mL (≈ 3.59 µM) in experiment [13]; greater than 64 µg/mL in experiment [14]; 16 µg/mL (≈ 28.7 µM) in experiment [15]. In addition, the MIC in experiment [16] is greater than 64 µg/mL; in experiment [17], 2 µg/mL (≈ 3.59 µM); in experiment [18], 2 µg/mL (≈ 3.59 µM).
